Tested on: 883617-216-R-J1-PDC complex spheroid viability
Assay: Anticancer human tumor 883617-216-R-J1-PDC patient-derived bladder carcinoma cell line growth inhibition [POLQ]
Conditions: for IC50: curve of first compound; for viability, T/C: stronger effect = lower value
Summary of the method: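 Patient-derived tumour cells were co-cultured with HUVEC and mesenchymal stem cells as multicellular spheroids at 37 °C. They were treated with POLQ inhibitors (novobiocin, ART-558, RP6685) alone or combined with other agents. Top concentrations were at or near clinical Cmax (otherwise 10 microM; SN-38 at 1 microM), decreasing in half-log steps.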

[1] = second compound 0.0316 µM, first compound 0.0316 µM
[2] = second compound 0.0316 µM, first compound 0.1 µM
[3] = second compound 0.0316 µM, first compound 0.316 µM
[4] = second compound 0.0316 µM, first compound 1 µM
[5] = second compound 0.0316 µM, first compound 3.16 µM
[6] = second compound 0.0316 µM, first compound 10 µM
[7] = second compound 0.1 µM, first compound 0.0316 µM
[8] = second compound 0.1 µM, first compound 0.1 µM
[9] = second compound 0.1 µM, first compound 0.316 µM
[10] = second compound 0.1 µM, first compound 1 µM
[11] = second compound 0.1 µM, first compound 3.16 µM
[12] = second compound 0.1 µM, first compound 10 µM
[13] = second compound 0.316 µM, first compound 0.0316 µM
[14] = second compound 0.316 µM, first compound 0.1 µM
[15] = second compound 0.316 µM, first compound 0.316 µM
[16] = second compound 0.316 µM, first compound 1 µM
[17] = second compound 0.316 µM, first compound 3.16 µM
[18] = second compound 0.316 µM, first compound 10 µM
[19] = second compound 1 µM, first compound 0.0316 µM
[20] = second compound 1 µM, first compound 0.1 µM
[21] = second compound 1 µM, first compound 0.316 µM
[22] = second compound 1 µM, first compound 1 µM
[23] = second compound 1 µM, first compound 3.16 µM
[24] = second compound 1 µM, first compound 10 µM
[25] = second compound 3.16 µM, first compound 0.0316 µM
[26] = second compound 3.16 µM, first compound 0.1 µM
[27] = second compound 3.16 µM, first compound 0.316 µM
[28] = second compound 3.16 µM, first compound 1 µM
[29] = second compound 3.16 µM, first compound 3.16 µM
[30] = second compound 3.16 µM, first compound 10 µM
[31] = second compound 10 µM, first compound 0.0316 µM
[32] = second compound 10 µM, first compound 0.1 µM
[33] = second compound 10 µM, first compound 0.316 µM
[34] = second compound 10 µM, first compound 1 µM
[35] = second compound 10 µM, first compound 3.16 µM
[36] = second compound 10 µM, first compound 10 µM
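Note: spheroids exposed to compounds for seven days before readout.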
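Throughout, for viability, T/C: 100% = DMSO vehicle control viability.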

C#Cc1c(F)ccc2cc(O)cc(-c3ncc4c(N5CC6CCC(C5)N6)nc(OCC56CCCN5CC(F)C6)nc4c3F)c12 (stereo unspecified) + COC1C(OC(N)=O)C(O)C(Oc2ccc3c(O)c(NC(=O)c4ccc(O)c(CC=C(C)C)c4)c(=O)oc3c2C)OC1(C)C
IC50 (second compound 0.0316 µM): > 10 µM
IC50 (second compound 0.1 µM): > 10 µM
IC50 (second compound 0.316 µM): > 10 µM
IC50 (second compound 1 µM): > 10 µM
IC50 (second compound 3.16 µM): > 10 µM
IC50 (second compound 10 µM): > 10 µM
viability, T/C [1]: 90.3%
viability, T/C [2]: 108%
viability, T/C [3]: 96.2%
viability, T/C [4]: 97.9%
viability, T/C [5]: 81.1%
viability, T/C [6]: 75%
viability, T/C [7]: 121%
viability, T/C [8]: 100%
viability, T/C [9]: 90.4%
viability, T/C [10]: 83.4%
viability, T/C [11]: 87.3%
viability, T/C [12]: 78.2%
viability, T/C [13]: 96.1%
viability, T/C [14]: 114%
viability, T/C [15]: 90%
viability, T/C [16]: 91%
viability, T/C [17]: 70.3%
viability, T/C [18]: 67%
viability, T/C [19]: 99.7%
viability, T/C [20]: 98.8%
viability, T/C [21]: 83.8%
viability, T/C [22]: 91.4%
viability, T/C [23]: 81.9%
viability, T/C [24]: 86.3%
viability, T/C [25]: 98.6%
viability, T/C [26]: 93.6%
viability, T/C [27]: 95.5%
viability, T/C [28]: 94.4%
viability, T/C [29]: 84.4%
viability, T/C [30]: 76.3%
viability, T/C [31]: 85.8%
viability, T/C [32]: 101%
viability, T/C [33]: 101%
viability, T/C [34]: 85.7%
viability, T/C [35]: 91.8%
viability, T/C [36]: 73.6%

C=CC(=O)N1CCN(c2nc(=O)n(-c3c(C)ccnc3C(C)C)c3nc(-c4c(O)cccc4F)c(F)cc23)C(C)C1 (stereo unspecified) + COC1C(OC(N)=O)C(O)C(Oc2ccc3c(O)c(NC(=O)c4ccc(O)c(CC=C(C)C)c4)c(=O)oc3c2C)OC1(C)C
IC50 (second compound 0.0316 µM): > 10 µM
IC50 (second compound 0.1 µM): > 10 µM
IC50 (second compound 0.316 µM): > 10 µM
IC50 (second compound 1 µM): > 10 µM
IC50 (second compound 3.16 µM): > 10 µM
IC50 (second compound 10 µM): > 10 µM
viability, T/C [1]: 79.2%
viability, T/C [2]: 77.5%
viability, T/C [3]: 70.8%
viability, T/C [4]: 98.3%
viability, T/C [5]: 81.7%
viability, T/C [6]: 87.6%
viability, T/C [7]: 72.5%
viability, T/C [8]: 68.2%
viability, T/C [9]: 67.3%
viability, T/C [10]: 81.8%
viability, T/C [11]: 102%
viability, T/C [12]: 80.5%
viability, T/C [13]: 70.2%
viability, T/C [14]: 78.7%
viability, T/C [15]: 68.5%
viability, T/C [16]: 73.7%
viability, T/C [17]: 85.5%
viability, T/C [18]: 75.9%
viability, T/C [19]: 81.8%
viability, T/C [20]: 65.9%
viability, T/C [21]: 73.2%
viability, T/C [22]: 78.2%
viability, T/C [23]: 89.9%
viability, T/C [24]: 76.5%
viability, T/C [25]: 78.3%
viability, T/C [26]: 62.4%
viability, T/C [27]: 79.3%
viability, T/C [28]: 69.5%
viability, T/C [29]: 79%
viability, T/C [30]: 76.8%
viability, T/C [31]: 68%
viability, T/C [32]: 60.6%
viability, T/C [33]: 76.5%
viability, T/C [34]: 85.5%
viability, T/C [35]: 84.2%
viability, T/C [36]: 91.4%

CC(C)n1c(=O)n(C)c2cnc3cc(F)c(-c4ccc(OCCCN5CCCCC5)nc4)cc3c21 + COC1C(OC(N)=O)C(O)C(Oc2ccc3c(O)c(NC(=O)c4ccc(O)c(CC=C(C)C)c4)c(=O)oc3c2C)OC1(C)C
IC50 (second compound 0.0316 µM): > 10 µM
IC50 (second compound 0.1 µM): > 10 µM
IC50 (second compound 0.316 µM): > 10 µM
IC50 (second compound 1 µM): > 10 µM
IC50 (second compound 3.16 µM): > 10 µM
IC50 (second compound 10 µM): > 10 µM
viability, T/C [1]: 92.2%
viability, T/C [2]: 94.5%
viability, T/C [3]: 97.4%
viability, T/C [4]: 93.1%
viability, T/C [5]: 88.2%
viability, T/C [6]: 65.1%
viability, T/C [7]: 99%
viability, T/C [8]: 103%
viability, T/C [9]: 93.9%
viability, T/C [10]: 104%
viability, T/C [11]: 91.8%
viability, T/C [12]: 82.6%
viability, T/C [13]: 97%
viability, T/C [14]: 92.2%
viability, T/C [15]: 97.3%
viability, T/C [16]: 101%
viability, T/C [17]: 97%
viability, T/C [18]: 76.3%
viability, T/C [19]: 102%
viability, T/C [20]: 103%
viability, T/C [21]: 108%
viability, T/C [22]: 91.2%
viability, T/C [23]: 94.1%
viability, T/C [24]: 84.5%
viability, T/C [25]: 109%
viability, T/C [26]: 108%
viability, T/C [27]: 110%
viability, T/C [28]: 95.7%
viability, T/C [29]: 95.9%
viability, T/C [30]: 81%
viability, T/C [31]: 106%
viability, T/C [32]: 97.3%
viability, T/C [33]: 102%
viability, T/C [34]: 98.3%
viability, T/C [35]: 78.9%
viability, T/C [36]: 72.8%

Reference: PubChem BioAssay AID1963833 (Molecular Pharmacology Branch, DTP, NCI, 2024)
